| SMILES | logP |
| --- | --- |
| O=C(O)CSC1c2cccc(O)c2C(=O)c2c(O)cccc21 | 2.35 |
| COC(=O)CSC1c2cccc(O)c2C(=O)c2c(O)cccc21 | 3.53 |
| CCCCOC(=O)CCSC1c2cccc(O)c2C(=O)c2c(O)cccc21 | 4.55 |
| O=C1c2c(O)cccc2C(SCCCS)c2cccc(O)c21 | 4.33 |
| CC(SC1c2cccc(O)c2C(=O)c2c(O)cccc21)C(=O)O (stereo not given) | 2.77 |
| Nc1ccc(SC2c3cccc(O)c3C(=O)c3c(O)cccc32)cc1 | 3.65 |
| CCOC(=O)CSC1c2cccc(O)c2C(=O)c2c(O)cccc21 | 4.45 |
| CCCCOC(=O)CSC1c2cccc(O)c2C(=O)c2c(O)cccc21 | 4.41 |
| CCSC1c2cccc(O)c2C(=O)c2c(O)cccc21 | 2.97 |
| COc1cccc(SC2c3cccc(O)c3C(=O)c3c(O)cccc32)c1 | 4.5 |
| CCOC(=O)CCSC1c2cccc(O)c2C(=O)c2c(O)cccc21 | 4.59 |
| COc1ccccc1SC1c2cccc(O)c2C(=O)c2c(O)cccc21 | 4.42 |
| O=C1c2c(O)cccc2C(Sc2ccccc2O)c2cccc(O)c21 | 3.92 |
| O=C1c2c(O)cccc2C(Sc2ccccc2)c2cccc(O)c21 | 4.54 |
| COc1ccc(SC2c3cccc(O)c3C(=O)c3c(O)cccc32)cc1 | 4.51 |
| Nc1ccccc1SC1c2cccc(O)c2C(=O)c2c(O)cccc21 | 4.05 |
| O=C1c2c(O)cccc2C(SCCCc2ccccc2)c2cccc(O)c21 | 4.78 |
| O=C(O)CCSC1c2cccc(O)c2C(=O)c2c(O)cccc21 | 3 |
| O=C1c2c(O)cccc2C(SCCO)c2cccc(O)c21 | 3.16 |
| O=C1c2c(O)cccc2C(SCCc2ccccc2)c2cccc(O)c21 | 4.97 |
| O=C1c2c(O)cccc2C(Sc2ccc(O)cc2)c2cccc(O)c21 | 3.69 |
| COc1ccc(CSC2c3cccc(O)c3C(=O)c3c(O)cccc32)cc1 | 4.83 |
| O=C1c2c(O)cccc2C(SCc2ccccc2)c2cccc(O)c21 | 4.87 |
| CCCSC1c2cccc(O)c2C(=O)c2c(O)cccc21 | 4.57 |
| O=C1c2c(O)cccc2C(SCC(O)CO)c2cccc(O)c21 (stereo not given) | 2.73 |

Source: the SangsterLogP compilation
